Source: ChEMBL document CHEMBL1151308, “Acanthosterol sulfates A-J: ten new antifungal steroidal sulfates from a marine sponge Acanthodendrilla sp” (1998)
Activity calls are given as the source filed them. The calls are words filed in the database; no cut-off is given here.

Columns and labels:
Saccharomyces cerevisiae [1] = assay: Antifungal activity against Saccharomyces cerevisiae A364A at 0.1 mg/disk; assay type: functional
Saccharomyces cerevisiae [2] = assay: Antifungal activity against Saccharomyces cerevisiae STX338-2C mutant at 0.1 mg/disk; assay type: functional
Saccharomyces cerevisiae [3] = assay: Antifungal activity against Saccharomyces cerevisiae 14028g mutant at 0.1 mg/disk; assay type: functional
Saccharomyces cerevisiae [4] = assay: Antifungal activity against Saccharomyces cerevisiae GT160-45c at 0.1 mg/disk; assay type: functional, organism-based
Saccharomyces cerevisiae [5] = assay: Antifungal activity against Saccharomyces cerevisiae RAY-3Aa at 0.1 mg/disk; assay type: functional, organism-based

| SMILES | inhibition zone (IZ) (Saccharomyces cerevisiae [1]) | inhibition zone (IZ) (Saccharomyces cerevisiae [2]) | inhibition zone (IZ) (Saccharomyces cerevisiae [3]) | Activity (Saccharomyces cerevisiae [4]) | Activity (Saccharomyces cerevisiae [5]) |
| --- | --- | --- | --- | --- | --- |
| CC(=O)O[C@@H]1C[C@]2(C)[C@H]3CC[C@]4(C)[C@@H]([C@H](C)[C@@H]5O[C@H]5[C@H](C)C(C)C)CC[C@H]4C3=CC[C@H]2[C@H](OS(=O)(=O)[O-])[C@H]1O.[Na+] [ACANTHOSTEROL SULFATE I] | 7 mm | 8 mm | 9 mm | inactive | inactive |
| CC(=O)O[C@@H]1C[C@]2(C)[C@H]3CC[C@]4(C)[C@@H]([C@H](C)[C@@H]5O[C@H]5[C@@H](C)C(C)C)CC[C@H]4C3=CC[C@H]2[C@H](OS(=O)(=O)[O-])[C@H]1O.[Na+] [ACANTHOSTEROL SULFATE J] | 11 mm | 10 mm | 11 mm | inactive | inactive |
